Measured values: BindingDB's records for PubMed 9694916 (Smithkline Beecham Pharmaceuticals, 1998)

Assays:
Endothelin-1 receptor = biological target: T1, Endothelin-1 receptor (Homo sapiens, UniProt P25101)
T1 sequence (P25101 whole entry): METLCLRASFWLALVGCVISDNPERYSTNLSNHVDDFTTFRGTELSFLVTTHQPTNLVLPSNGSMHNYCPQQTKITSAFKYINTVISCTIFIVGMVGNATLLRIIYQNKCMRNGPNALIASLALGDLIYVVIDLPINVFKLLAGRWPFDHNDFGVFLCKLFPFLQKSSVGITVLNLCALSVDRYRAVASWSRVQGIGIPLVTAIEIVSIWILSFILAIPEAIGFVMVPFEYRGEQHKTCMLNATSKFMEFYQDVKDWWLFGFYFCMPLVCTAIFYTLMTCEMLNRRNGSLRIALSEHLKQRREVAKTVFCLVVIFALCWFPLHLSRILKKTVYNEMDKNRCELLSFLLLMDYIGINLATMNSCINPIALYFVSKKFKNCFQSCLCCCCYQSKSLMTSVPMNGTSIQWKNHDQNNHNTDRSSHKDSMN

[1] = biological target: T2, Endothelin receptor type B (Homo sapiens, UniProt P24530)
T2 sequence (P24530 whole entry): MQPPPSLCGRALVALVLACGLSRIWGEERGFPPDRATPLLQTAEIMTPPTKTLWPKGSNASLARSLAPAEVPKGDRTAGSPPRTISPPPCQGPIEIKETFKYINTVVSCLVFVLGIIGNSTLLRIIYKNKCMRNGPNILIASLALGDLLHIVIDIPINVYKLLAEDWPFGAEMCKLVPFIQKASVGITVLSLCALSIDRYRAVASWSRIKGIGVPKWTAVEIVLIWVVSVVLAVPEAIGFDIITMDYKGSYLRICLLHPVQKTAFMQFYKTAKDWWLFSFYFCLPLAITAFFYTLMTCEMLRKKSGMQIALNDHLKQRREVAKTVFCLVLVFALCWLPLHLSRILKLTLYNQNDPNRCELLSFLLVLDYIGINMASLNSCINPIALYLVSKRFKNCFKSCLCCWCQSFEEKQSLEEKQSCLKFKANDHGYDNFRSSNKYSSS

Ki (Endothelin-1 receptor) [nM]	Ki [1] [nM]	SMILES
0.4	21	CCCOc1ccc2c(c1)[C@@H](c1ccc(OC)cc1OCC(=O)O)[C@H](C(=O)O)[C@H]2c1ccc2c(c1)OCO2 [(1S,2R,3S)-1-Benzo[1,3]dioxol-5-yl-3-(2-carboxymethoxy-4-methoxy-phenyl)-5-propoxy-indan-2-carboxylic acid]
1.5	150	CCCOc1ccc2c(c1)[C@@H](c1ccc(OC)cc1OCCO)[C@H](C(=O)O)[C@H]2c1ccc2c(c1)OCO2 [Enrasentan]
0.13	500	CCCCn1ncc(/C=C(\Cc2cc3c(cc2OC)OCO3)C(=O)O)c1-c1ccc(OC)cc1OCc1ccccc1C(=O)O [SB-234551]
